Measurements as given in publication PMC4770715, “LIM kinase inhibitors disrupt mitotic microtubule organization and impair tumor cell proliferation” (Oncotarget, 2015).

Key:
Assay in all cases: biochemical
Parameters in all cases: KINOMEscan active-site competition binding, percent of control (100 = no competition)
Details in all cases: competition binding, percent control
PIP5K2B = target: T1, PIP5K2B (Homo sapiens, UniProt P78356)
T1 construct: gene PIP4K2B

BMPR1B = BMPR1B (Homo sapiens, UniProt O00238)
QSK = target: T2, QSK (Homo sapiens, UniProt Q9Y2K2)
T2 construct: gene SIK3
T2 sequence (Q9Y2K2 whole entry): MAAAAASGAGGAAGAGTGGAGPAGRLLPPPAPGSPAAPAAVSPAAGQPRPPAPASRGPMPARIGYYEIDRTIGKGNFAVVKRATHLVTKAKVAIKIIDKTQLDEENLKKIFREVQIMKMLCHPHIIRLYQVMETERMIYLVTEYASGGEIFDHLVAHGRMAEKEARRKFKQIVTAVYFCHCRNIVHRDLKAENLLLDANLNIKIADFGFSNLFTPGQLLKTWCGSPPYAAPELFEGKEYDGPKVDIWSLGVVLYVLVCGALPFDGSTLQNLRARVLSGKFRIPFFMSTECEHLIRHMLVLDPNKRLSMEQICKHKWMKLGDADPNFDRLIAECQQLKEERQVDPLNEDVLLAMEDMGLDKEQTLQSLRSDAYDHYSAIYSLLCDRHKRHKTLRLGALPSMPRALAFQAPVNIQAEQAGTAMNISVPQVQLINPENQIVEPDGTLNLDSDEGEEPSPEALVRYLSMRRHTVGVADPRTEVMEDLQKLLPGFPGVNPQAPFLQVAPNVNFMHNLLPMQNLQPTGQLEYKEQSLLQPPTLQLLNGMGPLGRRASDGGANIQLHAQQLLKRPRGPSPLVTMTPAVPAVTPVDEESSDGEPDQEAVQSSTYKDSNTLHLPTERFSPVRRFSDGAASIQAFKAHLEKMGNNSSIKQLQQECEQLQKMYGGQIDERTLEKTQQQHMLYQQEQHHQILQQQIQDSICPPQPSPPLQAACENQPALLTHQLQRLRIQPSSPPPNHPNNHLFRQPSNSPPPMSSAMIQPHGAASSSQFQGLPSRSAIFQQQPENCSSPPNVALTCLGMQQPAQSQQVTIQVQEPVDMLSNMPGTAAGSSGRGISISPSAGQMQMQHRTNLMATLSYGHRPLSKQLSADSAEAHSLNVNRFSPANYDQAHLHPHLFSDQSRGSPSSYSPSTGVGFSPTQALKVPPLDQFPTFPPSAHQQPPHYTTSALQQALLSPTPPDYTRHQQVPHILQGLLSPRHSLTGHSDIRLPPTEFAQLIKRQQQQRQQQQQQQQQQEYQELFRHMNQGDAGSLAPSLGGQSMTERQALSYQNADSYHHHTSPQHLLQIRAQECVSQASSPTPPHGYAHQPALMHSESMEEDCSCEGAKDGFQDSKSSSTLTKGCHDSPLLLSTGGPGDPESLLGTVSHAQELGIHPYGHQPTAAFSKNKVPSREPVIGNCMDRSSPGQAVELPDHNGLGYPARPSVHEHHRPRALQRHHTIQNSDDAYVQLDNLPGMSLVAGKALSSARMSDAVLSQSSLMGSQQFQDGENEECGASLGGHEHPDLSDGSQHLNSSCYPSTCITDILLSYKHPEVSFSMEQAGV

PIM2 = PIM2 (Homo sapiens, UniProt Q9P1W9)
PIM2, sequence (Q9P1W9 whole entry): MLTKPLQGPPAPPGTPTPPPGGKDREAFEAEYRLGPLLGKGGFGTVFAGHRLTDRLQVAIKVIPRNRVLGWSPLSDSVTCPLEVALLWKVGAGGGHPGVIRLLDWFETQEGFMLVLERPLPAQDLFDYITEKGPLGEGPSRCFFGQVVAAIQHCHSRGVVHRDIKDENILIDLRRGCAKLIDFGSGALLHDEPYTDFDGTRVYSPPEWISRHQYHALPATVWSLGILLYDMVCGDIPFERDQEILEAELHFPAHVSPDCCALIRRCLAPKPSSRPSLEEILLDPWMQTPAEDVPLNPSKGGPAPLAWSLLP

RET(M918T) = RET(M918T) (Homo sapiens, UniProt P07949, M918T)
MAK = MAK (Homo sapiens, UniProt P20794)
[1] = target: T3, TYK2(JH2domain-pseudokinase) (Homo sapiens, UniProt P29597)
T3 construct: JH2domain-pseudokinase

YSK4 = target: T4, YSK4 (Homo sapiens, UniProt Q56UN5)
T4 construct: gene MAP3K19

DRAK1 = target: T5, DRAK1 (Homo sapiens, UniProt Q9UEE5)
T5 construct: gene STK17A

MET = MET (Homo sapiens, UniProt P08581)
DCAMKL3 = target: T6, DCAMKL3 (Homo sapiens, UniProt Q9C098)
T6 construct: gene DCLK3
T6 sequence (Q9C098 whole entry): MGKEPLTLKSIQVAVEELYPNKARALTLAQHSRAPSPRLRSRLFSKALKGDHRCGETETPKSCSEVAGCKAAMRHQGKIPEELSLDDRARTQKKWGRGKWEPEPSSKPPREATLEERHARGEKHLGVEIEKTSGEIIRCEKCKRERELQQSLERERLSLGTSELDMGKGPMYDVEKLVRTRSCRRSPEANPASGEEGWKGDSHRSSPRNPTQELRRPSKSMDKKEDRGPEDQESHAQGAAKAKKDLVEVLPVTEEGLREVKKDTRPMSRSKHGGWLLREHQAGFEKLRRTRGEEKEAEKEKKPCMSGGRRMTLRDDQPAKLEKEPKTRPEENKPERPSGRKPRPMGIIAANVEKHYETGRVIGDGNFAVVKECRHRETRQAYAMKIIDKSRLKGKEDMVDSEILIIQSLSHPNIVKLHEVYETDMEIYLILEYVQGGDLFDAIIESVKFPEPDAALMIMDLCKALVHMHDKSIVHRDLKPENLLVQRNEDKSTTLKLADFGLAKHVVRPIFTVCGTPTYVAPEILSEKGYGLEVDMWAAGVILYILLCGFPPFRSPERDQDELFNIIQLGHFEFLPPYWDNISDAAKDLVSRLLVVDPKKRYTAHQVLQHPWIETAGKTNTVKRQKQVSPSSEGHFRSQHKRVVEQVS

EGFR(G719C) = EGFR(G719C) (Homo sapiens, UniProt P00533, G719C)
EGFR(G719C), sequence (P00533 whole entry G719C): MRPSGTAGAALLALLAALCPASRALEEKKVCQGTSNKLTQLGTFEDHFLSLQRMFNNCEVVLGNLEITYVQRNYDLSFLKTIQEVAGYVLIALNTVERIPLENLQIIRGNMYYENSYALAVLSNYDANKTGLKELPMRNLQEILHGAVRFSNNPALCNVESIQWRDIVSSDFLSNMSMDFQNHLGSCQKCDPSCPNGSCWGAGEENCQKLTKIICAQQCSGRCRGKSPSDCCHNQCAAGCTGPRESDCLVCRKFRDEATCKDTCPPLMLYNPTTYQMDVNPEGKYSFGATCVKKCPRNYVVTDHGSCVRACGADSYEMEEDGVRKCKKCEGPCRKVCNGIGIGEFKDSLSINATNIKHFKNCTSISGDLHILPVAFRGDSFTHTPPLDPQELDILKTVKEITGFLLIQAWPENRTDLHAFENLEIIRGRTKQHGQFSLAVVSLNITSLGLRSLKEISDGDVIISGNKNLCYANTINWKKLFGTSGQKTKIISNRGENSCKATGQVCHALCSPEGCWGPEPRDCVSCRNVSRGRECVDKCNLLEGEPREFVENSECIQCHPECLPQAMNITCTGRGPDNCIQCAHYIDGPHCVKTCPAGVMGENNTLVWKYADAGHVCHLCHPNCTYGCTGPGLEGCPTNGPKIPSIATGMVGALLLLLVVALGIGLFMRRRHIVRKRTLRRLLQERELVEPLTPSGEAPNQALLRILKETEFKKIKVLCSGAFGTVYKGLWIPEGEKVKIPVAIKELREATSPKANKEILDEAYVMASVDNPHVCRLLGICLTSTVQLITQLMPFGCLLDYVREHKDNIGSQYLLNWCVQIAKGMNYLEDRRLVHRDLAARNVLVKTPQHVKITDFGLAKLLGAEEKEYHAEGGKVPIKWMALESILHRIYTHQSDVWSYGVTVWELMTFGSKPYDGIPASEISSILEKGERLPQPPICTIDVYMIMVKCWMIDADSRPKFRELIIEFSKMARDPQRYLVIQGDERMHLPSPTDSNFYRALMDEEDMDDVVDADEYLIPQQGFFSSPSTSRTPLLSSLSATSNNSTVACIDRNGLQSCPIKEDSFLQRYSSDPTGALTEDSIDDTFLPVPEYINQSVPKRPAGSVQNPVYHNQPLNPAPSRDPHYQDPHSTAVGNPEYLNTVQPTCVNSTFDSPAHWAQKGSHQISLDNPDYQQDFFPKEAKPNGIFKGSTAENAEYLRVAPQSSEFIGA

CAMK2B = CAMK2B (Homo sapiens, UniProt Q13554)
CSNK1D = CSNK1D (Homo sapiens, UniProt P48730)
PCTK2 = target: T7, PCTK2 (Homo sapiens, UniProt Q00537)
T7 construct: gene CDK17

CAMK2D = CAMK2D (Homo sapiens, UniProt Q13557)
CAMK2D, sequence (Q13557 whole entry): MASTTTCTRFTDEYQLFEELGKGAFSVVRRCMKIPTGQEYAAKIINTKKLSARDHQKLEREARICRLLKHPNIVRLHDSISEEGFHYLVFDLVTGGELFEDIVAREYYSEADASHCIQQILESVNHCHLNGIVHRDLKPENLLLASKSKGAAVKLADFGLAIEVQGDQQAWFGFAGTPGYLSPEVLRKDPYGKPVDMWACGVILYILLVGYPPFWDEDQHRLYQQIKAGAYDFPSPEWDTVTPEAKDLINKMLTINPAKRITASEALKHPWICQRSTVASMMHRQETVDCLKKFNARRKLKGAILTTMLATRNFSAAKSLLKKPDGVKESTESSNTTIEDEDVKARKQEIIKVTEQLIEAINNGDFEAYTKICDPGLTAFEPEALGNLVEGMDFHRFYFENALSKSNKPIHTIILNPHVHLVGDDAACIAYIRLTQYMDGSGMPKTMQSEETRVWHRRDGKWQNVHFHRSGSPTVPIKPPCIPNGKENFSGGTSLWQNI

PIK3CG = PIK3CG (Homo sapiens, UniProt P48736)
PIK3CG, sequence (P48736 whole entry): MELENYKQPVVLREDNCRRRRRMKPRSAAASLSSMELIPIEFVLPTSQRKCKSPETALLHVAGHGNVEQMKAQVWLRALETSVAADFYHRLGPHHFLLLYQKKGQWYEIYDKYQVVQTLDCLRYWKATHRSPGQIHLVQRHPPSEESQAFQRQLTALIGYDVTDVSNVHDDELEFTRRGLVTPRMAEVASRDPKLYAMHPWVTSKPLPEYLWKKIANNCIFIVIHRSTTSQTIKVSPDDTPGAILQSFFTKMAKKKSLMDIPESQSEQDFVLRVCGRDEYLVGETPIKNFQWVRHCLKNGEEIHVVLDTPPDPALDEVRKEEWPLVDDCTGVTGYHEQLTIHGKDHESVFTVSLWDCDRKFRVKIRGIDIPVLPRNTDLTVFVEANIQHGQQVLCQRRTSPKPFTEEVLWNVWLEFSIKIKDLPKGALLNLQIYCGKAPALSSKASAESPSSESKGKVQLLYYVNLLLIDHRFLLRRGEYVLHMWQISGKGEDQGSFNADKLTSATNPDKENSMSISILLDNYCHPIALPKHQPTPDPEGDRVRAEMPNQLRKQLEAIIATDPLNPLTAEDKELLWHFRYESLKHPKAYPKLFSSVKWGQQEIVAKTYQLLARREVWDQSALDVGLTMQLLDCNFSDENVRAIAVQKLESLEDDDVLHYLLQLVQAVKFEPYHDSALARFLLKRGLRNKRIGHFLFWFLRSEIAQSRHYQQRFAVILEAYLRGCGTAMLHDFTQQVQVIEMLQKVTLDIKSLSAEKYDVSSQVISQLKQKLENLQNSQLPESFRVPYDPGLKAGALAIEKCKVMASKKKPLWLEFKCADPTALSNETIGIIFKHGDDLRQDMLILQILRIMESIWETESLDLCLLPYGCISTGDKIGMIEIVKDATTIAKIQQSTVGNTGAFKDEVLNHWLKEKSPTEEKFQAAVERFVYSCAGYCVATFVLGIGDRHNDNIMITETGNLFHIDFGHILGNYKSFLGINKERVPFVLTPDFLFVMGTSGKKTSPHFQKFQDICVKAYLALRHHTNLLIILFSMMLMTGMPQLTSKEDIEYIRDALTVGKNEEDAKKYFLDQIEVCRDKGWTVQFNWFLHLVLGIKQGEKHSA

PFTAIRE2 = target: T8, PFTAIRE2 (Homo sapiens, UniProt Q96Q40)
T8 construct: gene CDK15

LZK = target: T9, LZK (Homo sapiens, UniProt O43283)
T9 construct: gene MAP3K13

PLK2 = PLK2 (Homo sapiens, UniProt Q9NYY3)
[2] = target: T10, RSK1(Kin.Dom.1-N-terminal) (Homo sapiens, UniProt Q15418)
T10 construct: gene RPS6KA1; Kin.Dom.1-N-terminal

KIT(L576P) = KIT(L576P) (Homo sapiens, UniProt P10721, L576P)

Row | SMILES | remaining binding at 10 µM (PIP5K2B) [%] | remaining binding at 10 µM (BMPR1B) [%] | remaining binding at 10 µM (QSK) [%] | remaining binding at 10 µM (PIM2) [%] | remaining binding at 10 µM (RET(M918T)) [%] | remaining binding at 10 µM (MAK) [%] | remaining binding at 10 µM [1] [%] | remaining binding at 10 µM (YSK4) [%] | remaining binding at 10 µM (DRAK1) [%] | remaining binding at 10 µM (MET) [%] | remaining binding at 10 µM (DCAMKL3) [%] | remaining binding at 10 µM (EGFR(G719C)) [%] | remaining binding at 10 µM (CAMK2B) [%] | remaining binding at 10 µM (CSNK1D) [%] | remaining binding at 10 µM (PCTK2) [%] | remaining binding at 10 µM (CAMK2D) [%] | remaining binding at 10 µM (PIK3CG) [%] | remaining binding at 10 µM (PFTAIRE2) [%] | remaining binding at 10 µM (LZK) [%] | remaining binding at 10 µM (PLK2) [%] | also measured
1 | COc1ccc(-c2cnccc2-c2cnc(NC(=O)C(C)C)s2)c(C(F)(F)F)c1 [CRT0105446, N-{5-[3-(4-Methoxy-2-trifluoromethyl-phenyl)-pyridin-4-yl]-hiazol-2-yl}-isobutyramide] | 100 | 92 | 100 | 100 | 91 | 0.6 | 100 | 90 | 81 | 80 | 88 | 89 | 92 | 27 | 17 | 72 | 96 | 18 | 100 | 99 | remaining binding at 10 µM [2]: 56%; remaining binding at 10 µM (KIT(L576P)): 36%
2 | Cc1ccc(-c2cnccc2-c2cnc(Nc3ccc(O)cc3)s2)c(Cl)c1 [CRT0105950, 4-{5-[3-(2-Chloro-4-methyl-phenyl)-pyridin-4-yl]-thiazol-2-ylamino}-phenol] | 44 | 29 | 72 | 100 | 0.35 | 2 | 81 | 53 | 100 | 16 | 7.4 | 71 | 42 | 6.1 | 52 | 29 | 82 | 18 | 96 | 9 | remaining binding at 10 µM [2]: 0.05%; remaining binding at 10 µM (KIT(L576P)): 0.4%
